# Experimental data as given in paper PMC4381587, “A novel PI3K inhibitor PIK-C98 displays potent preclinical activity against multiple myeloma” (Oncotarget, 2014).
# Experiments:
# [1] = target: recombinant human PI3K isoform β (Homo sapiens, UniProt P42338); test: Kinase activity in cell-free assay (HotSpot), PI3Kβ; format: biochemical; settings: read-out: IC50 against PI3K β isoform
# Experimental: (§1) To confirm this hypothesis, the inhibitory potency of C98 on PI3K enzymes was measured in a cell-free system with individual recombinant human PI3K isoforms. […] To further evaluate its specificity on PI3K, the effects of C98 on other associated kinases AKT, PDK1, and mTOR were also measured in the enzymatic systems. […] Therefore, C98 preferred to inhibit PI3K activity.
# (§2) Figure 1 C98 inhibits PI3K activity (A) Chemical structure of C98. (B) OPM2 cells were starved overnight and then treated with six compounds identified from the virtual screening for 2 hr, followed by IGF-1 stimulation for 15 min. Cell lysates were prepared for AKT expression and phosphorylation analyses. The known PI3K inhibitor S14161 was used as a positive control. (C) OPM2 cells were starved overnight, then treated with C98 at indicated concentration (25, 50 and 100 μM) or S14161 (100 μM) for 2 hr, followed by IGF-1 (100 ng/mL) stimulation for 15 min Cell lysates were prepared for AKT expression and phosphorylation analyses. […] Activity of each kinase was determined with HotSpot technology as described in the Methods section “Kinase activity in cell-free assay”. […]
# [2] = target: recombinant human PI3K isoform γ (Homo sapiens, UniProt P48736); test: Kinase activity in cell-free assay (HotSpot), PI3Kγ; format: biochemical; settings: read-out: IC50 against PI3K γ isoform
# recombinant human PI3K isoform γ, sequence (P48736 whole entry, canonical isoform): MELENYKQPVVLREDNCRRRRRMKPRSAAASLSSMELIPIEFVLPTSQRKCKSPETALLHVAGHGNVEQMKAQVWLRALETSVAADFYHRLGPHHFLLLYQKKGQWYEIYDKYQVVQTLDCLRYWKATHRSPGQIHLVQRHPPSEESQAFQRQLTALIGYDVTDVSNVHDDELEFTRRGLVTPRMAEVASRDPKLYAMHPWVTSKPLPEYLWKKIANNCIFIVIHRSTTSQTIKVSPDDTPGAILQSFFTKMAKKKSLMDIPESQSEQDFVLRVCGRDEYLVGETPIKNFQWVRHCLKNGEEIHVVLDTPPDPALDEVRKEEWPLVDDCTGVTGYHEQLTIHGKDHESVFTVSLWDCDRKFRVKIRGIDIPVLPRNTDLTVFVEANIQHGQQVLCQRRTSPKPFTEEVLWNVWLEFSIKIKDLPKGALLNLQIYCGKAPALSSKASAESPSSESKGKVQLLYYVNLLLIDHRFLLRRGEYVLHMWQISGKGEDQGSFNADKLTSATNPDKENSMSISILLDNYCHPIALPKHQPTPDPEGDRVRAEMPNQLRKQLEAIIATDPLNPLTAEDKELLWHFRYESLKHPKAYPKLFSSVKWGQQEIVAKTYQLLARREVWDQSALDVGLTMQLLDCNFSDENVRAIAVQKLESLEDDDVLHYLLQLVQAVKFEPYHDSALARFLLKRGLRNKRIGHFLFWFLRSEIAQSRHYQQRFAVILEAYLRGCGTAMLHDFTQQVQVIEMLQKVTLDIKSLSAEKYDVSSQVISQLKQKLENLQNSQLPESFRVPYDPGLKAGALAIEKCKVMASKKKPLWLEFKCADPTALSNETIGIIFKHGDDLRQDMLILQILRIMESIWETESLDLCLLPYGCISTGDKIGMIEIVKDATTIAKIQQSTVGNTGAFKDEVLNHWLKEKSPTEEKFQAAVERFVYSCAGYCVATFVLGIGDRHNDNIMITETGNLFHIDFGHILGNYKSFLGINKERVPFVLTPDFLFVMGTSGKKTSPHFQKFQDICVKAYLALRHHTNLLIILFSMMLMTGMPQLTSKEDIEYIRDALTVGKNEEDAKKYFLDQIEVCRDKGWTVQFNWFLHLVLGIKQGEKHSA
# Experimental: as §1, §2
# [3] = tested on: AKT; test: Kinase activity in cell-free assay, AKT; format: biochemical; settings: enzymatic system; read-out: IC50 on AKT activation
# Experimental: as §1
# Kinase activity in the presence of C98 was performed by using the HotSpot technology (Reaction Biology Corp., Malvern, PA, USA) as described previously.
# [4] = tested on: AKT phosphorylation in OPM2 cells; test: Immunoblotting of AKT phosphorylation in starved, IGF-1-stimulated OPM2 cells; format: cell-based, human; settings: OPM2 starved overnight, C98 25-100 μM, 0.5-2 hr, then IGF-1 100 ng/mL 15 min
# Experimental: as §1, §2
# [5] = tested on: PI3K/AKT/mTOR pathway in OPM2 and JJN3 cells; test: Immunoblotting of PI3K/AKT/mTOR pathway in OPM2 and JJN3 cells; format: cell-based, human; settings: OPM2 and JJN3, increasing concentration, 24 hr
# Experimental: Subsequently, the inhibition of C98 on the PI3K signaling pathway was evaluated in MM cell lines OPM2 and JJN3. […] Because all these kinases are downstream signaling proteins in the PI3K pathway while C98 had no effects on AKT and mTOR in the cell free assay, the inhibition of C98 on these kinases was probably due to its suppression on PI3K.
# (B) LP1 and JJN3 cells were starved overnight, then treated with C98 or S14161 for 2 hr, followed by IGF-1 (100 ng/mL) for 15 min. Cells were then prepared for the analysis of the expression of p-AKT, t-AKT, p-IGF-1R, and IGF-1R by immunoblotting. (C) OPM2 and JJN3 cells were treated with increasing concentrations of C98 for 24 hr before being applied to immunoblotting against p-ERK, t-ERK, p-P38, t-P38, p-Src, t-Src, p-STAT3, or t-STAT3. GAPDH and β-actin were used as loading controls.
# The immunoblotting assays were performed as described previously. IRDye 680 goat anti-mouse and IRDye 800CW goat anti-rabbit antibodies were from Odyssey (San Ramon, CA, USA).
# [6] = tested on: OPM2 xenograft; test: OPM2 myeloma xenograft in nude mice; format: in vivo; settings: 80 mg/kg oral daily
# [7] = Pharmacokinetic study in nude mice, oral; format: in vivo; settings: mouse, one oral bolus 40 mg/kg, plasma
# Experimental: To further characterize C98 in the treatment of MM, we determined its pharmacokinetic parameters. One bolus of 40 mg/kg of C98 was orally administrated, blood samples were then collected at the time points of 0.167, 0.5, 1, 2, 4, 6, 8, and 24 hr.
# Prior to dose administration, nude mice (Shanghai Slac Laboratory Animal Co. Ltd., Shanghai, China) were fasted overnight with free access to water in the regular light-dark cycle. A group of 9 mice received an oral dose of C98 at 40 mg/kg. Blood samples were collected from three mice (n = 3) at each time points as follows: 0.167, 0.5, 1, 2, 4, 6, 8, and 24 hr. Blood samples (100 μL) were immediately mixed with 10 μL of EDTA and plasma was obtained by centrifugation at 1.3 × 10^4 rpm for 10 min. Samples were stored at –80°C for LC-MS/MS analysis. Plasma concentration versus time was analyzed using WinNolin software (version 6.2.1, Pharsight, USA) and the pharmacokinetic parameters maximum drug concentration (Cmax), time to reach maximum drug concentration (Tmax), half life (t1/2), area under the plasma level-time curve (AUC) were calculated.
# Concentrations of C98 in plasma and in tumor tissues were analyzed by a LC-MS/MS method as described previously. Chromatographic separation was achieved using an Agela Venusil XBP C18 column (50 × 2.1 mm; […] particle size, Bonna-Agela Technologies, Tianjin, China). The column temperature was maintained at 40°C. Gradient elution at a flow rate of 0.3 mL/min was performed using the mobile phases: A, acetonitrile: water: formic acid (5: 95: 0.1, v: v: v) and B, acetonitrile: water: formic acid (95: 5: 0.1, v: v: v).
# The mass spectrometer was operated in the negative ionization mode. The ion transitions for the multiple reaction monitored were: C98, 346.6 (M-H)→312.7; betamethasone (internal standard, IS), 391.1 (M-H)→ 361.4, with a dwell time of 100 ms per transition. After setting the collision energy and mass transition for C98 and the Internal standard, all other parameters were optimized for the best sensitivity. Data was processed by the Analyst 1.5.2 data collection and integration software (AB Sciex, Framingham, MA).
# Supplementary Figure S5: The time-concentration profiles of C98 in plasma after oral administration. Nude mice were orally administrated C98 at a dose of 40 mg/kg. Blood species were then collected at a serial of time points (0, 0.167, 0.5, 1, 1.5, 2, 4, 6, 8, 24 hr) and subject to LC-MS/MS analysis after treatment as described in the Methods section. Resultant plasma concentration versus time data was analyzed using WinNolin software.
# (also on this page, place not known: www.impactjournals.com/oncotarget/ Oncotarget, Materials 2014 Supplementary) […]
# recombinant human PI3K isoform β, sequence (P42338 whole entry, canonical isoform): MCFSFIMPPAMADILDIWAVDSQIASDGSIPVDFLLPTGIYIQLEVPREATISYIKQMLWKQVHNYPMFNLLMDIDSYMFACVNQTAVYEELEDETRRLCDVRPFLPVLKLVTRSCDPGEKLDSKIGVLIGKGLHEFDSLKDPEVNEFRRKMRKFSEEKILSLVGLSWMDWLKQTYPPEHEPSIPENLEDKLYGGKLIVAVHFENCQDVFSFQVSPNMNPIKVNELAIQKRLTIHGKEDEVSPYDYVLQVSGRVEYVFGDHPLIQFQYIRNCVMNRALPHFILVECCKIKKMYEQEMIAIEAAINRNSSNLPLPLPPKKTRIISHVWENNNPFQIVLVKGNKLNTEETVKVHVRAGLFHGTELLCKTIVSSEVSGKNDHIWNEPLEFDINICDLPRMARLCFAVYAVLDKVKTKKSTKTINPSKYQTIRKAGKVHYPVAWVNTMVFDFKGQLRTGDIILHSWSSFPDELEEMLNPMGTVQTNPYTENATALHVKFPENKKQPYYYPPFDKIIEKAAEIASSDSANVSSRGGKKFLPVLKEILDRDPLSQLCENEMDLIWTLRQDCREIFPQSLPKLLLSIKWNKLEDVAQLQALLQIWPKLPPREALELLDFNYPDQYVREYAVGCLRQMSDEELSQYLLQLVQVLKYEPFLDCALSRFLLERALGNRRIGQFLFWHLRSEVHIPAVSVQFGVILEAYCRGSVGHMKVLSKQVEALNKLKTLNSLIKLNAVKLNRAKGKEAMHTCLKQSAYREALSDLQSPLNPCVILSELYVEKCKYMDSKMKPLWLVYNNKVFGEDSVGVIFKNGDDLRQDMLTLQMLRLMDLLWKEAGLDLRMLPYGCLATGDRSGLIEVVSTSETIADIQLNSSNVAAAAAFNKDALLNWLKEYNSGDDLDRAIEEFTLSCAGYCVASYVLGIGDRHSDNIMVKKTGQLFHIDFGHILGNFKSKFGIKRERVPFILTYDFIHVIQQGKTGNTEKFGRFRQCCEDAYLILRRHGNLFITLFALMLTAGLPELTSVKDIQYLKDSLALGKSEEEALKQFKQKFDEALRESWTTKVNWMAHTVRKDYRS
# recombinant human PI3K isoform β, sequence (P27986 whole entry partner, canonical isoform): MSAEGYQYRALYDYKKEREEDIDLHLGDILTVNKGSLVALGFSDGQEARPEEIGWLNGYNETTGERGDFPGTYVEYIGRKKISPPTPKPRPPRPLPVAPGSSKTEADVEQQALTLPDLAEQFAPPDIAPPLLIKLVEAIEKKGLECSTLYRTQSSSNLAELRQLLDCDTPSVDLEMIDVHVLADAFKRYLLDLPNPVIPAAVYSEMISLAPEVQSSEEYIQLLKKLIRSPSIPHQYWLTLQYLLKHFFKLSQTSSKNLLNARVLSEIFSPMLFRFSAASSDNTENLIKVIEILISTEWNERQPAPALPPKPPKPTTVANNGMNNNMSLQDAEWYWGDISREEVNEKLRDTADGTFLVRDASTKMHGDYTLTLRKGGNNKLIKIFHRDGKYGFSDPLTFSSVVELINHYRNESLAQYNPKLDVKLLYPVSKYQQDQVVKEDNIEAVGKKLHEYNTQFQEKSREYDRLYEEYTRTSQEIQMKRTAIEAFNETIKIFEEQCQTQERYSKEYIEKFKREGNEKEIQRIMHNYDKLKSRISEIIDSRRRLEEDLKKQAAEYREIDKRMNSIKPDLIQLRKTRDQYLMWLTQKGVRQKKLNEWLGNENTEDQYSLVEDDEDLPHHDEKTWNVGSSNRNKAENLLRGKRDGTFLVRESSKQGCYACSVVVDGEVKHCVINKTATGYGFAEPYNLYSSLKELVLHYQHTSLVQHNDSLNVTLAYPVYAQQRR
smiles,measurement,setting,value
N#C/C(=C\C=C\c1ccc(-c2cc(Cl)ccc2Cl)o1)C(N)=S [C98],IC50,[1],1640 nM
same,IC50,[2],740 nM
same,IC50,[3],61400 nM
same,AKT phosphorylation,[4],inhibited AKT phosphorylation in a time- and concentration-dependent manner
same,"phosphorylation levels of AKT, mTOR, p70S6K, and 4E-BP1",[5],downregulated
same,tumors decreased to % of the vehicle control,[6]; 16-day treatment,45%
same,tumor volume at the end of the experiment,[6]; 16 days,605.8 ± 115.7 mm^3
same,MRT,[7]; read-out: mean residence time (MRT),4.48 h
same,Cmax,[7]; read-out: median peak concentration (Cmax),367 ng/mL
same,Tmax,[7]; read-out: time to maximal concentration (Tmax),0.5 h
same,half-life,"[7]; nude, po, 40 mg/kg, read-out: half-life (t1/2) (converted)",2.03 h
